In patent US9545387B2, “Composition and kit comprising piperazine derivatives and metformin, and use thereof in the treatment of diabetes” (METABOLYS, priority 2012, dated 2017):

Key:
[1] = oral glucose tolerance test (OGTT) in normal Swiss mice fasting for 17 hours, additive effect with metformin; assay type: in vivo; conditions: compound 1 50 mg/kg per os, metformin 300 mg/kg per os
Procedure: The anti-diabetic action of the compounds in Examples 1 and 2 were determined via oral route in normal Swiss mice fasting for 17 hours. […] The animals were housed for a minimum time of one week after delivery (ordered from Charles River France) up until the day of experimentation in an animal facility at a temperature regulated at 21-22° C. and subjected to a light cycle (from 9 h to 17 h) and dark cycle (from 19 h to 7 h). They were fed a maintenance diet: water and food were provided ? ad libitum ? . The animals were treated via oral route 1 hour before oral administration of a glucose load (oral glucose tolerance test—OGTT). Glycaemia was measured at various times before and after this glucose load. This glycaemia was measured using a glucometer (Lifescan OneTouch Ultra, Lifescan, Johnson and Johnson Company) and OneTouch Ultra glycaemia test strips. In the Tables below n represents the number of mice included in the study. • 1. […] The 2 compounds were administered successively one hour before the glucose load. All the groups were composed of 5 mice (metformin alone, compound 1 alone, metformin+compound 1, control group with the carrier alone). Blood samples were taken at 0, 30, 60, 90 and 120 minutes after the glucose load.

[2] = as above; assay type: in vivo; conditions: metformin 300 mg/kg per os; for Glycaemia, Time −60 mn / Glycaemia, Time 30 mn / Glycaemia, Time 60 mn / Glycaemia, Time 120 mn / Glycaemia, Time 0 mn / Glycaemia, Time 90 mn: OGTT; for Glycaemia, Time −60 mn: given 1 h before glucose load, time −60 min; for Glycaemia, Time 30 mn: time 30 min; for Glycaemia, Time 60 mn: time 60 min; for Glycaemia, Time 120 mn: time 120 min; for Glycaemia, Time 0 mn: time 0 min; for Glycaemia, Time 90 mn: time 90 min
[3] = tested on: liver cells of rats fasting for 48 h; conditions: rat liver cells; stated in words, no data shown; cited from earlier work
[4] = Table 1, compound 1 50 mg/kg per os
[5] = Table 2, compound 2 50 mg/kg per os
[6] = Table 3, compound 3 50 mg/kg per os
[7] = Table 4, compound 4 50 mg/kg per os

CN(C)C(=N)N=C(N)N [Metformin, metformin]
Glycaemia, Time 0 mn ([1]; Table 1, OGTT, time 0 min): 3.2 ± 0.3 mM/liter | Glycaemia, Time 90 mn ([1]; Table 1, OGTT, time 90 min): 7.7 ± 1.0 mM/liter | drop of glycaemia area under curve after glucose load ([1]; study 1): 44.2% | Glycaemia, Time −60 mn [2, 4]: 3.7 ± 0.3 mM/liter | Glycaemia, Time 30 mn [2, 4]: 8.6 ± 0.5 mM/liter | Glycaemia, Time 60 mn [2, 4]: 9.4 ± 0.8 mM/liter | Glycaemia, Time 120 mn [2, 4]: 6.2 ± 0.8 mM/liter | Glycaemia, Time −60 mn [2, 5]: 3.8 ± 0.1 mM/liter | Glycaemia, Time 0 mn [2, 5]: 3.6 ± 0.3 mM/liter | Glycaemia, Time 30 mn [2, 5]: 11.2 ± 0.3 mM/liter | Glycaemia, Time 60 mn [2, 5]: 9.5 ± 0.4 mM/liter | Glycaemia, Time 90 mn [2, 5]: 8.0 ± 1.3 mM/liter | Glycaemia, Time 120 mn [2, 5]: 8.2 ± 0.7 mM/liter | Glycaemia, Time −60 mn [2, 6]: 5.6 ± 0.3 mM/liter | Glycaemia, Time 0 mn [2, 6]: 6.0 ± 0.3 mM/liter | Glycaemia, Time 30 mn [2, 6]: 9.2 ± 0.8 mM/liter | Glycaemia, Time 60 mn [2, 6]: 8.2 ± 0.4 mM/liter | Glycaemia, Time 90 mn [2, 6]: 7.7 ± 0.2 mM/liter | Glycaemia, Time 120 mn [2, 6]: 9.6 ± 0.8 mM/liter | Glycaemia, Time −60 mn [2, 7]: 4.2 ± 0.3 mM/liter | Glycaemia, Time 0 mn [2, 7]: 3.6 ± 0.3 mM/liter | Glycaemia, Time 30 mn [2, 7]: 9.5 ± 0.6 mM/liter | Glycaemia, Time 60 mn [2, 7]: 11.2 ± 1.8 mM/liter | Glycaemia, Time 90 mn [2, 7]: 9.6 ± 0.9 mM/liter | Glycaemia, Time 120 mn [2, 7]: 8.6 ± 0.7 mM/liter | drop of glycaemia area under curve after glucose load ([2]; study 2, compound 2 50 mg/kg per os): 38.7% | drop of glycaemia area under curve after glucose load ([2]; study 3, compound 3 50 mg/kg per os): 68.5% | drop of glycaemia area under curve after glucose load ([2]; study 4, compound 4 50 mg/kg per os): 54.3% | effect on the production of 13CO2 from 2-13C-lactate [3]: reduces | effect on the synthesis of glucose [3]: reduces
